PubChem BioAssay AID256 (DTP/NCI, 2004)
“And” between values parts separate entries of the source, which are not always exact repeats. Equal values may be shown once. Toxic doses and inconclusive results are not listed. Rule for the calls: active = survival T/C of 150% or more; inactive = T/C below 125% in these data.

System: CD2F1 mice, L1210 leukemia ip, survival T/C
Test: NCI In Vivo Anticancer Drug Screen. Data for tumor model L1210 Leukemia (intraperitoneal) in CD2F1 (CDF1) mice
Settings: higher = longer survival
How it was run: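 Implant tumor; dose compound or vehicle; measure endpoint in both groups; report treated divided by control.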

[1] = endpoint: mean survival time, dose: 100.0 mg/kg/injection, schedule: Q01DX001 (ip), vehicle: saline with Tween-80
[2] = endpoint: mean survival time, dose: 100.0 mg/kg/injection, schedule: Q01DX009 (ip), vehicle: saline with Tween-80
[3] = endpoint: mean survival time, dose: 100.0 mg/kg/injection, schedule: Q04DX003 (ip), vehicle: saline
[4] = endpoint: mean survival time, dose: 200.0 mg/kg/injection, schedule: Q04DX003 (ip), vehicle: saline
[5] = endpoint: mean survival time, dose: 100.0 mg/kg/injection, schedule: Q04DX003 (ip), vehicle: saline with Tween-80
[6] = endpoint: mean survival time, dose: 200.0 mg/kg/injection, schedule: Q04DX003 (ip), vehicle: saline with Tween-80
[7] = endpoint: mean survival time, dose: 400.0 mg/kg/injection, schedule: Q04DX003 (ip), vehicle: saline with Tween-80
[8] = endpoint: mean survival time, dose: 50.0 mg/kg/injection, schedule: Q01DX009 (ip), vehicle: Klucel (hydroxypropylcellulose) (HPC)
[9] = endpoint: mean survival time, dose: 100.0 mg/kg/injection, schedule: Q01DX009 (ip), vehicle: Klucel (hydroxypropylcellulose) (HPC)
[10] = endpoint: mean survival time, dose: 100.0 mg/kg/injection, schedule: Q04DX002 (ip), vehicle: saline
[11] = endpoint: mean survival time, dose: 200.0 mg/kg/injection, schedule: Q04DX002 (ip), vehicle: saline
[12] = endpoint: mean survival time, dose: 12.5 mg/kg/injection, schedule: Q01DX009 (ip), vehicle: Klucel (hydroxypropylcellulose) (HPC)
[13] = endpoint: mean survival time, dose: 25.0 mg/kg/injection, schedule: Q01DX009 (ip), vehicle: Klucel (hydroxypropylcellulose) (HPC)
[14] = endpoint: mean survival time, dose: 200.0 mg/kg/injection, schedule: Q01DX009 (ip), vehicle: Klucel (hydroxypropylcellulose) (HPC)
[15] = endpoint: mean survival time, dose: 200.0 mg/kg/injection, schedule: Q01DX001 (ip), vehicle: saline with Tween-80
[16] = endpoint: mean survival time, dose: 400.0 mg/kg/injection, schedule: Q01DX001 (ip), vehicle: saline with Tween-80
[17] = endpoint: mean survival time, dose: 200.0 mg/kg/injection, schedule: Q01DX009 (ip), vehicle: saline with Tween-80
[18] = endpoint: mean survival time, dose: 400.0 mg/kg/injection, schedule: Q01DX009 (ip), vehicle: saline with Tween-80

Measured: T/C

OC1(c2ccccc2)CCN(C/C=C/c2ccccc2)CC1
inactive: endpoint: mean survival time, dose: 25.0 mg/kg/injection, schedule: Q01DX001 (ip), vehicle: saline with Tween-80 102 % of control | endpoint: mean survival time, dose: 50.0 mg/kg/injection, schedule: Q01DX001 (ip), vehicle: saline with Tween-80 101 % of control | [1] 102 % of control and 103 % of control

Cc1ccc(S(=O)(=O)C2C=CC=CC=C2)cc1
inactive: endpoint: mean survival time, dose: 25.0 mg/kg/injection, schedule: Q01DX009 (ip), vehicle: saline with Tween-80 98 % of control | endpoint: mean survival time, dose: 50.0 mg/kg/injection, schedule: Q01DX009 (ip), vehicle: saline with Tween-80 98 % of control | [2] 94 % of control

CC1(O)CC2CCC1C2 (configuration not stated)
inactive: [3] 95 % of control | [4] 90 % of control | endpoint: mean survival time, dose: 400.0 mg/kg/injection, schedule: Q04DX003 (ip), vehicle: saline 87 % of control

O=S(=O)(O)SCc1ccccc1
inactive: [5] 97 % of control | [6] 92 % of control | [7] 98 % of control

Cc1ccc(O)c(N)c1
inactive: [5] 93 % of control | [6] 111 % of control

N#Cc1ccc(CCl)cc1
inactive: [8] 98 % of control | [9] 98 % of control

O=C(O)C(Cl)C(Cl)c1ccccc1 (configuration not stated)
inactive: [10] 90 % of control | [11] 94 % of control | endpoint: mean survival time, dose: 400.0 mg/kg/injection, schedule: Q04DX002 (ip), vehicle: saline 94 % of control

COc1cc2ccc3cnccc3c2cc1OC
inactive: [12] 100 % of control | [13] 92 % of control | [8] 94 % of control | [9] 94 % of control | [14] 100 % of control

CCOC(=O)C[n+]1ccccc1
inactive: [3] 107 % of control and 95 % of control | [4] 90 % of control and 89 % of control

NC(=S)N/N=C/c1cc([N+](=O)[O-])ccc1O
inactive: [8] 113 % of control | [9] 97 % of control | [14] 101 % of control

O=C(/C=C\c1ccccc1)/C=C/c1ccccc1
inactive: endpoint: mean survival time, dose: 177.0 mg/kg/injection, schedule: Q01DX001 (ip), vehicle: other 96 % of control | endpoint: mean survival time, dose: 267.0 mg/kg/injection, schedule: Q01DX001 (ip), vehicle: other 92 % of control | endpoint: mean survival time, dose: 400.0 mg/kg/injection, schedule: Q01DX001 (ip), vehicle: other 104 % of control | endpoint: mean survival time, dose: 600.0 mg/kg/injection, schedule: Q01DX001 (ip), vehicle: other 107 % of control

CC1CC(C)(C)N=C(C(Cc2ccccc2)Cc2ccccc2)O1 (configuration not stated)
inactive: [1] 97 % of control | [15] 95 % of control

CC(=O)NC(Cc1ccccc1)c1ccccc1 (configuration not stated)
inactive: [1] 112 % of control | [15] 105 % of control | [16] 86 % of control

CN=C(NC)c1cccc(NC(=O)/C=C\c2ccc(/C=C/C(=O)Nc3cccc(C(=NC)NC)c3)cc2)c1
inactive: endpoint: median survival time, dose: 1.25 mg/kg/injection, schedule: Q01DX009 (ip), vehicle: saline 101 % of control | endpoint: median survival time, dose: 2.5 mg/kg/injection, schedule: Q01DX009 (ip), vehicle: saline 107 % of control | endpoint: median survival time, dose: 5.0 mg/kg/injection, schedule: Q01DX009 (ip), vehicle: saline 101 % of control

C(=C\c1ccccc1)/C[P+](c1ccccc1)(c1ccccc1)c1ccccc1
inactive: endpoint: mean survival time, dose: 5.0 mg/kg/injection, schedule: Q01DX009 (ip), vehicle: saline with Tween-80 98 % of control | endpoint: mean survival time, dose: 5.0 mg/kg/injection, schedule: Q04DX003 (ip), vehicle: saline with Tween-80 100 % of control | endpoint: mean survival time, dose: 10.0 mg/kg/injection, schedule: Q01DX009 (ip), vehicle: saline with Tween-80 100 % of control | endpoint: mean survival time, dose: 10.0 mg/kg/injection, schedule: Q04DX003 (ip), vehicle: saline with Tween-80 100 % of control | endpoint: mean survival time, dose: 20.0 mg/kg/injection, schedule: Q01DX009 (ip), vehicle: saline with Tween-80 94 % of control | endpoint: mean survival time, dose: 20.0 mg/kg/injection, schedule: Q04DX003 (ip), vehicle: saline with Tween-80 97 % of control

O=C(CCNC(=O)OCc1ccccc1)NC(CSCc1ccccc1)C(=O)O (configuration not stated)
inactive: endpoint: mean survival time, dose: 25.0 mg/kg/injection, schedule: Q01DX005 (ip), vehicle: water 101 % of control | endpoint: mean survival time, dose: 50.0 mg/kg/injection, schedule: Q01DX005 (ip), vehicle: water 106 % of control | endpoint: mean survival time, dose: 100.0 mg/kg/injection, schedule: Q01DX005 (ip), vehicle: water 101 % of control | endpoint: mean survival time, dose: 200.0 mg/kg/injection, schedule: Q01DX005 (ip), vehicle: water 108 % of control

COc1ccc(C[As+](c2ccccc2)(c2ccccc2)c2ccccc2)cc1
inactive: endpoint: mean survival time, dose: 5.0 mg/kg/injection, schedule: Q01DX001 (ip), vehicle: saline 102 % of control | endpoint: mean survival time, dose: 10.0 mg/kg/injection, schedule: Q01DX001 (ip), vehicle: saline 95 % of control | endpoint: mean survival time, dose: 20.0 mg/kg/injection, schedule: Q01DX001 (ip), vehicle: saline 98 % of control | endpoint: mean survival time, dose: 40.0 mg/kg/injection, schedule: Q01DX001 (ip), vehicle: saline 100 % of control

COc1cc2c(cc1OC)C1CC(=O)C(CC(C)C)CN1CC2 (configuration not stated)
inactive: [5] 96 % of control | [6] 88 % of control | [7] 100 % of control

Cn1ccccc1=S
inactive: [1] 108 % of control | [15] 107 % of control | [16] 103 % of control

O=C(/C=C/c1ccccc1)N/N=C/c1ccccc1Cl
inactive: [8] 105 % of control | [9] 105 % of control | [14] 105 % of control

O=[N+]([O-])c1ccc2c(c1)COCO2
inactive: [2] 97 % of control | [17] 97 % of control | [18] 96 % of control

OC(Cc1ccccn1)C(Cl)(Cl)Cl (configuration not stated)
inactive: endpoint: mean survival time, dose: 50.0 mg/kg/injection, schedule: Q04DX002 (ip), vehicle: saline 97 % of control | [2] 102 % of control | [10] 114 % of control | [5] 95 % of control | [17] 112 % of control | [11] 94 % of control | [6] 111 % of control | [18] 98 % of control | [7] 103 % of control

CC(=O)Oc1cc([N+](=O)[O-])ccc1C(=O)O
inactive: [2] 102 % of control | [17] 102 % of control

O=C(O)/C=C/CC(=O)O
inactive: endpoint: mean survival time, dose: 100.0 mg/kg/injection, schedule: Q01DX001 (ip), vehicle: saline 92 % of control | endpoint: mean survival time, dose: 200.0 mg/kg/injection, schedule: Q01DX001 (ip), vehicle: saline 97 % of control | endpoint: mean survival time, dose: 400.0 mg/kg/injection, schedule: Q01DX001 (ip), vehicle: saline 101 % of control

CCCCCCCCCCCCCCCc1cc(O)ccc1[N+](=O)[O-]
inactive: [2] 111 % of control | [17] 115 % of control | [18] 96 % of control

C=C[C](=C)[Pb]([CH2]C)([CH2]C)[CH2]C
inactive: endpoint: mean survival time, dose: 75.0 mg/kg/injection, schedule: Q01DX001 (ip), vehicle: saline 100 % of control | endpoint: mean survival time, dose: 150.0 mg/kg/injection, schedule: Q01DX001 (ip), vehicle: saline 97 % of control | endpoint: mean survival time, dose: 300.0 mg/kg/injection, schedule: Q01DX001 (ip), vehicle: saline 107 % of control

CC(=O)OC1=NC(C)c2c1cc(OC(C)=O)[nH]c2=O (configuration not stated)
inactive: endpoint: mean survival time, dose: 6.25 mg/kg/injection, schedule: Q01DX009 (ip), vehicle: Klucel (hydroxypropylcellulose) (HPC) 104 % of control and 107 % of control | [12] 101 % of control and 106 % of control | [13] 104 % of control and 110 % of control | [8] 100 % of control and 101 % of control | [9] 113 % of control and 102 % of control

CCOC(=O)CN/N=C(\N)CSS(=O)(=O)O
inactive: [5] 97 % of control | [6] 97 % of control | [7] 100 % of control

CCCCCC(C)(C#N)CCCCC
inactive: [2] 105 % of control | [17] 103 % of control
